Laboratory results reported in patent US6984756B2, “Process for preparing biphenyl compounds” (Eli Lilly and Company, priority 2000, dated 2006).

How the values were obtained:
[1] = solubility in organic solvents relative to compound of formula I; type: physicochemical
Description: In Scheme III above, the compound of formula I may be contaminated with achiral dimer, (methylsulfonyl){2-[4-(4-{2-[(methylsulfonyl)amino]ethyl}phenyl)phenyl]ethyl}amine and chiral dimer, ((2R)-2-{4-[4-((1R)-1-methyl-2-{[(methylethyl)sulfonyl]amino}ethyl)phenyl]phenyl}propyl)[(methylethyl)sulfonyl]amine. […] However, the above achiral dimer is less soluble in organic solvents than the compound of formula I therefore, generally resisted removal from the compound of formula I by recrystallization.

water solubility = type: physicochemical

Structure (SMILES)	solubility in organic solvents compared with the compound of formula I [1]	water solubility (water solubility)
CS(=O)(=O)NCCc1ccc(-c2ccc(CCNS(C)(=O)=O)cc2)cc1 [achiral dimer, (methylsulfonyl){2-[4-(4-{2-[(methylsulfonyl)amino]ethyl}phenyl)phenyl]ethyl}amine]	less soluble	–
CC(C)S(=O)(=O)NC[C@H](C)c1ccc(-c2ccc(CCNS(C)(=O)=O)cc2)cc1 [compound of formula I, {(2R)-2-[4-(4-{2-[(methylsulfonyl)amino]ethyl}phenyl)phenyl]propyl}[(methylethyl)sulfonyl]amine]	–	poor
CC(C)S(=O)(=O)NC[C@H](C)c1ccc(-c2ccc([C@@H](C)CNS(=O)(=O)C(C)C)cc2)cc1 [chiral dimer, ((2R)-2-{4-[4-((1R)-1-methyl-2-{[(methylethyl)sulfonyl]amino}ethyl)phenyl]phenyl}propyl)[(methylethyl)sulfonyl]amine]	more soluble	–
